Assay results taken from PubChem BioAssay (NCI).
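Protocol summary: plate cells (96-well), add compound at 5 concentrations, incubate 48 h, interpolate endpoints linearly. At the TGI there is no net growth.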

Key:
Experiment in all cases: NCI-60 cell line screen, 48 h
786-0 renal = system: 786-0 renal
A498 renal = system: A498 renal
A549 NSCLC = system: A549 NSCLC
ACHN renal = system: ACHN renal
BT-549 breast = system: BT-549 breast
CAKI-1 renal = system: CAKI-1 renal
CCRF-CEM leukemia = system: CCRF-CEM leukemia
COLO 205 colon = system: COLO 205 colon
DU-145 prostate = system: DU-145 prostate
EKVX NSCLC = system: EKVX NSCLC
HCC-2998 colon = system: HCC-2998 colon
HCT-116 colon = system: HCT-116 colon
HCT-15 colon = system: HCT-15 colon
HL-60(TB) leukemia = system: HL-60(TB) leukemia
HOP-62 NSCLC = system: HOP-62 NSCLC
HOP-92 NSCLC = system: HOP-92 NSCLC
HS 578T breast = system: HS 578T breast
HT29 colon = system: HT29 colon
IGROV1 ovarian = system: IGROV1 ovarian
K-562 leukemia = system: K-562 leukemia
KM12 colon = system: KM12 colon
LOX IMVI melanoma = system: LOX IMVI melanoma
M14 melanoma = system: M14 melanoma
MALME-3M melanoma = system: MALME-3M melanoma
MCF7 breast = system: MCF7 breast
MDA-MB-231 breast = system: MDA-MB-231 breast
MDA-MB-435 = system: MDA-MB-435
MDA-N = system: MDA-N
MOLT-4 leukemia = system: MOLT-4 leukemia
NCI-H226 lung = system: NCI-H226 lung
NCI-H23 lung = system: NCI-H23 lung
NCI-H460 lung = system: NCI-H460 lung
NCI-H522 lung = system: NCI-H522 lung
NCI/ADR-RES ovarian = system: NCI/ADR-RES ovarian
OVCAR-3 ovarian = system: OVCAR-3 ovarian
OVCAR-4 ovarian = system: OVCAR-4 ovarian
OVCAR-5 ovarian = system: OVCAR-5 ovarian
OVCAR-8 ovarian = system: OVCAR-8 ovarian
RPMI-8226 leukemia = system: RPMI-8226 leukemia
RXF 393 renal = system: RXF 393 renal
SF-268 CNS = system: SF-268 CNS
SF-295 CNS = system: SF-295 CNS
SF-539 CNS = system: SF-539 CNS
SK-MEL-2 melanoma = system: SK-MEL-2 melanoma
SK-MEL-28 melanoma = system: SK-MEL-28 melanoma
SK-MEL-5 melanoma = system: SK-MEL-5 melanoma
SK-OV-3 ovarian = system: SK-OV-3 ovarian
SN12C renal = system: SN12C renal
SNB-19 CNS = system: SNB-19 CNS
SNB-75 CNS = system: SNB-75 CNS
SR leukemia = system: SR leukemia
SW-620 colon = system: SW-620 colon
T-47D breast = system: T-47D breast
TK-10 renal = system: TK-10 renal
UACC-257 melanoma = system: UACC-257 melanoma
UACC-62 melanoma = system: UACC-62 melanoma
UO-31 renal = system: UO-31 renal
PC-3 prostate = system: PC-3 prostate
U251 CNS = system: U251 CNS

Structure (SMILES): CC(=O)c1[nH]c(NC(C)C)c(C(=S)Nc2ccccc2)c1N
- TGI (786-0 renal): 61.8 µM
- TGI (A498 renal): 82.9 µM
- TGI (A549 NSCLC): 94.3 µM
- TGI (ACHN renal): > 100 µM
- TGI (BT-549 breast): 86.4 µM
- TGI (CAKI-1 renal): > 100 µM
- TGI (CCRF-CEM leukemia): 72.9 µM
- TGI (COLO 205 colon): > 100 µM
- TGI (DU-145 prostate): > 100 µM
- TGI (EKVX NSCLC): > 100 µM
- TGI (HCC-2998 colon): 75.5 µM
- TGI (HCT-116 colon): 64.4 µM
- TGI (HCT-15 colon): > 100 µM
- TGI (HL-60(TB) leukemia): > 100 µM
- TGI (HOP-62 NSCLC): > 100 µM
- TGI (HOP-92 NSCLC): 92.4 µM
- TGI (HS 578T breast): > 100 µM
- TGI (HT29 colon): > 100 µM
- TGI (IGROV1 ovarian): > 100 µM
- TGI (K-562 leukemia): > 100 µM
- TGI (KM12 colon): > 100 µM
- TGI (LOX IMVI melanoma): 37.8 µM
- TGI (M14 melanoma): 39.7 µM
- TGI (MALME-3M melanoma): 89.2 µM
- TGI (MCF7 breast): 42.2 µM
- TGI (MDA-MB-231 breast): 66.3 µM
- TGI (MDA-MB-435): 49 µM
- TGI (MDA-N): 61.3 µM
- TGI (MOLT-4 leukemia): > 100 µM
- TGI (NCI-H226 lung): 60.4 µM
- TGI (NCI-H23 lung): > 100 µM
- TGI (NCI-H460 lung): > 100 µM
- TGI (NCI-H522 lung): 31.7 µM
- TGI (NCI/ADR-RES ovarian): > 100 µM
- TGI (OVCAR-3 ovarian): > 100 µM
- TGI (OVCAR-4 ovarian): > 100 µM
- TGI (OVCAR-5 ovarian): > 100 µM
- TGI (OVCAR-8 ovarian): 94.9 µM
- TGI (RPMI-8226 leukemia): 27.9 µM
- TGI (RXF 393 renal): 50.3 µM
- TGI (SF-268 CNS): 65.9 µM
- TGI (SF-295 CNS): > 100 µM
- TGI (SF-539 CNS): > 100 µM
- TGI (SK-MEL-2 melanoma): 33 µM
- TGI (SK-MEL-28 melanoma): 87.7 µM
- TGI (SK-MEL-5 melanoma): 42.2 µM
- TGI (SK-OV-3 ovarian): > 100 µM
- TGI (SN12C renal): 75.1 µM
- TGI (SNB-19 CNS): 91.5 µM
- TGI (SNB-75 CNS): > 100 µM
- TGI (SR leukemia): 76.8 µM
- TGI (SW-620 colon): > 100 µM
- TGI (T-47D breast): 82.6 µM
- TGI (TK-10 renal): > 100 µM
- TGI (UACC-257 melanoma): 65.8 µM
- TGI (UACC-62 melanoma): 53.8 µM
- TGI (UO-31 renal): 77.7 µM

Structure (SMILES): Cc1c(C)c(C)c(Cn2[nH]c(=O)n(C)c2=O)c(C)c1C
- TGI (786-0 renal): > 100 µM
- TGI (A498 renal): > 100 µM
- TGI (A549 NSCLC): > 100 µM
- TGI (ACHN renal): > 100 µM
- TGI (BT-549 breast): > 100 µM
- TGI (CAKI-1 renal): > 100 µM
- TGI (CCRF-CEM leukemia): > 100 µM
- TGI (COLO 205 colon): > 100 µM
- TGI (DU-145 prostate): > 100 µM
- TGI (EKVX NSCLC): > 100 µM
- TGI (HCC-2998 colon): > 100 µM
- TGI (HCT-116 colon): > 100 µM
- TGI (HCT-15 colon): > 100 µM
- TGI (HL-60(TB) leukemia): > 100 µM
- TGI (HOP-62 NSCLC): > 100 µM
- TGI (HOP-92 NSCLC): > 100 µM
- TGI (HS 578T breast): > 100 µM
- TGI (HT29 colon): > 100 µM
- TGI (IGROV1 ovarian): > 100 µM
- TGI (K-562 leukemia): > 100 µM
- TGI (KM12 colon): > 100 µM
- TGI (LOX IMVI melanoma): > 100 µM
- TGI (M14 melanoma): > 100 µM
- TGI (MALME-3M melanoma): > 100 µM
- TGI (MCF7 breast): > 100 µM
- TGI (MDA-MB-231 breast): > 100 µM
- TGI (MDA-MB-435): > 100 µM
- TGI (MDA-N): > 100 µM
- TGI (MOLT-4 leukemia): > 100 µM
- TGI (NCI-H226 lung): > 100 µM
- TGI (NCI-H23 lung): > 100 µM
- TGI (NCI-H460 lung): > 100 µM
- TGI (NCI-H522 lung): > 100 µM
- TGI (NCI/ADR-RES ovarian): > 100 µM
- TGI (OVCAR-8 ovarian): > 100 µM
- TGI (PC-3 prostate): > 100 µM
- TGI (RPMI-8226 leukemia): > 100 µM
- TGI (SF-268 CNS): > 100 µM
- TGI (SF-295 CNS): > 100 µM
- TGI (SF-539 CNS): > 100 µM
- TGI (SK-MEL-2 melanoma): > 100 µM
- TGI (SK-MEL-28 melanoma): > 100 µM
- TGI (SK-MEL-5 melanoma): > 100 µM
- TGI (SK-OV-3 ovarian): > 100 µM
- TGI (SN12C renal): > 100 µM
- TGI (SNB-19 CNS): > 100 µM
- TGI (SNB-75 CNS): > 100 µM
- TGI (SW-620 colon): > 100 µM
- TGI (T-47D breast): > 100 µM
- TGI (TK-10 renal): > 100 µM
- TGI (U251 CNS): > 100 µM
- TGI (UACC-257 melanoma): > 100 µM
- TGI (UACC-62 melanoma): > 100 µM
- TGI (UO-31 renal): > 100 µM
